± gives the standard deviation of the averaged measurements.
What was measured:
Test in all cases: level (log10 ratio to DMSO vehicle control); higher = higher biomarker level / cell amount than vehicle control
Details in all cases: in DMSO
[1] = compound: COC(=O)C(F)(F)C(F)(F)OC(F)(C(F)(F)F)C(F)(F)OC(F)=C(F)F [Methyl perfluoro(3-(1-ethenyloxypropan-2-yloxy)propanoate)]
Procedure: (§1)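 BioMAP Diversity Plus panel of 12 human primary cell co-culture systems (3C, 4H, LPS, SAg, BT, BF4T, BE3C, CASM3C, HDF3CGF, KF3CT, MyoF, Mphg). Compounds were added 1 h before stimulation and left for 24 h (MyoF 48 h; BT 72 h for soluble read-outs or 6 d for IgG). Biomarkers were read by ELISA, cytotoxicity by SRB, PBMC viability and proliferation by Alamar Blue. Each well value was divided by the mean of 8 DMSO control wells on the same plate and log10 transformed; duplicate blinded samples were tested at 4 concentrations.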

[2] = compound: NC(=O)C(F)(F)C(F)(F)C(F)(F)C(F)F
Procedure: as §1

Heptafluorobutyl iodide = compound: FC(F)(F)C(F)(F)C(F)(F)CI [Heptafluorobutyl iodide]
Procedure: as §1

Nonafluoropentanamide = compound: NC(=O)C(F)(F)C(F)(F)C(F)(F)C(F)(F)F [Nonafluoropentanamide]
Procedure: as §1

[3] = compound: FC(F)(F)C(F)(F)C(F)(F)CC1CO1 [1H,1H-Heptafluorobutyl epoxide]
Procedure: as §1

[4] = compound: O=C(O)C(F)(F)C(F)(F)C(F)(F)C(F)(F)C(F)(F)C(F)(F)C(F)(F)C(F)(F)C(F)(F)C(F)F [11-H-Perfluoroundecanoic acid]
Procedure: as §1

[5] = compound: FC(F)(F)C(F)(F)C(F)(F)C(F)(F)C(F)(F)C(F)(F)CC1CO1 [3-(Perfluorohexyl)-1,2-epoxypropane]
Procedure: as §1

| Test System | level (log10) ([1]; 6700 nM) | level (log10) ([1]; 20000 nM) | level (log10) ([2]; 6700 nM) | level (log10) ([2]; 20000 nM) | level (log10) ([2]; 60000 nM) | level (log10) (Heptafluorobutyl iodide; 6700 nM) | level (log10) (Heptafluorobutyl iodide; 20000 nM) | level (log10) (Heptafluorobutyl iodide; 60000 nM) | level (log10) (Nonafluoropentanamide; 6700 nM) | level (log10) (Nonafluoropentanamide; 20000 nM) | level (log10) (Nonafluoropentanamide; 60000 nM) | level (log10) ([3]; 6700 nM) | level (log10) ([3]; 20000 nM) | level (log10) ([3]; 60000 nM) | level (log10) ([4]; 6700 nM) | level (log10) ([4]; 20000 nM) | level (log10) ([5]; 6700 nM) | level (log10) ([5]; 20000 nM) | level (log10) ([5]; 60000 nM) |
| --- | --- | --- | --- | --- | --- | --- | --- | --- | --- | --- | --- | --- | --- | --- | --- | --- | --- | --- | --- |
| HDF3CGF:EGFR | 0.0505 ± 0.054 | -0.005 ± 0.12 | 0.001 ± 0.033 | 0.0025 ± 0.046 | 0.0125 ± 0.043 | -0.0495 ± 0.064 | -0.054 ± 0.072 | -0.0055 ± 0.04 | -0.067 ± 0.058 | -0.048 ± 0.016 | -0.002 ± 0.042 | -0.004 ± 0.014 | -0.004 ± 0.0028 | 0.023 ± 0.047 | -0.022 ± 0.011 | -0.124 ± 0.018 | -0.0135 ± 0.011 | -0.01 ± 0.011 | -0.0055 ± 0.036 |
| HDF3CGF:M-CSF | 0.031 ± 0.058 | -0.074 ± 0.069 | -0.0065 ± 0.0078 | -0.008 ± 0.0014 | 0.017 ± 0.031 | -0.0665 ± 0.063 | -0.065 ± 0.023 | -0.07 ± 0.027 | -0.006 ± 0.017 | 0.01 ± 0.0014 | 0.0095 ± 0.021 | -0.017 ± 0.064 | -0.029 ± 0.044 | -0.0245 ± 0.0092 | -0.0345 ± 0.005 | -0.108 ± 0.029 | 0 ± 0.014 | -0.002 ± 0.0042 | -0.019 ± 0.0085 |
| HDF3CGF:MMP-1 | 0.0115 ± 0.011 | 0.02 ± 0.033 | 0.0005 ± 0.00071 | -0.006 ± 0.0042 | 0.003 ± 0.0071 | -0.014 ± 0.028 | -0.0195 ± 0.021 | -0.0255 ± 0.025 | 0.0065 ± 0.0092 | 0.011 ± 0.0085 | 0.0085 ± 0.012 | 0.0265 ± 0.012 | 0.028 ± 0.0099 | 0.0355 ± 0.0035 | -0.096 ± 0.034 | -0.0815 ± 0.005 | 0.0005 ± 0.0021 | 0.004 ± 0.0042 | 0.003 ± 0.0071 |
| HDF3CGF:PAI-I | 0.107 ± 0.0099 | 0.0875 ± 0.00071 | -0.012 ± 0.011 | -0.016 ± 0.0099 | 0 ± 0.038 | 0.0035 ± 0.043 | -0.004 ± 0.03 | -0.018 ± 0.027 | -0.014 ± 0.078 | 0.0005 ± 0.059 | 0.0125 ± 0.019 | -0.0135 ± 0.0035 | -0.0175 ± 0.0064 | 0.009 ± 0.025 | 0.018 ± 0.0099 | -0.0045 ± 0.0035 | -0.0375 ± 0.019 | -0.022 ± 0.033 | -0.0115 ± 0.05 |
| HDF3CGF:Proliferation 72hr | 0.076 ± 0.018 | -0.163 ± 0.079 | -0.0005 ± 0.046 | -0.0245 ± 0.06 | -0.0205 ± 0.037 | 0.0025 ± 0.0064 | -0.012 ± 0.0099 | -0.0085 ± 0.039 | -0.0375 ± 0.005 | -0.0485 ± 0.019 | -0.048 ± 0.028 | -0.0905 ± 0.044 | -0.0925 ± 0.047 | -0.0225 ± 0.13 | -0.253 ± 0.048 | -0.443 ± 0.0028 | -0.014 ± 0.052 | -0.0355 ± 0.049 | 0 ± 0.069 |
| HDF3CGF:SRB | 0.0845 ± 0.0035 | 0.081 ± 0.0042 | -0.007 ± 0.0042 | 0.0065 ± 0.016 | -0.0035 ± 0.015 | -0.0315 ± 0.012 | 0.0025 ± 0.037 | 0.0275 ± 0.04 | 0.024 ± 0.0042 | 0.022 ± 0.011 | 0.0245 ± 0.005 | -0.0095 ± 0.029 | -0.0105 ± 0.0021 | 0.0375 ± 0.0064 | 0.03 ± 0.0014 | 0.111 ± 0.024 | -0.001 ± 0.031 | -0.0035 ± 0.015 | -0.006 ± 0.04 |
| HDF3CGF:TIMP-1 | 0.0565 ± 0.011 | 0.117 ± 0.021 | -0.0005 ± 0.0064 | -0.0095 ± 0.043 | 0.0045 ± 0.039 | -0.0195 ± 0.037 | -0.019 ± 0.0085 | -0.059 ± 0.025 | 0.0155 ± 0.059 | 0.0025 ± 0.05 | 0.0015 ± 0.0064 | -0.0015 ± 0.067 | 0.015 ± 0.068 | -0.0025 ± 0.071 | 0.0005 ± 0.096 | 0.1 ± 0.072 | 0.0085 ± 0.025 | 0.0265 ± 0.025 | 0.0305 ± 0.012 |
| KF3CT:CCL2/MCP-1 | -0.015 ± 0.0014 | 0.01 ± 0.0099 | -0.0055 ± 0.018 | -0.0245 ± 0.0078 | 0.0205 ± 0.026 | -0.0045 ± 0.0021 | -0.018 ± 0.013 | 0.0195 ± 0.016 | 0.0175 ± 0.032 | 0.02 ± 0.0042 | 0.0215 ± 0.018 | -0.031 ± 0.04 | -0.0685 ± 0.023 | -0.026 ± 0.042 | -0.043 ± 0.021 | -0.129 ± 0.0078 | 0.0005 ± 0.0092 | -0.0125 ± 0.03 | 0.0075 ± 0.053 |
| KF3CT:CD54/ICAM-1 | -0.025 | -0.008 ± 0.0071 | -0.0075 ± 0.011 | -0.0255 ± 0.005 | -0.008 ± 0.0014 | -0.008 ± 0.0071 | -0.004 ± 0.0028 | -0.012 ± 0.0014 | -0.018 ± 0.0071 | -0.016 ± 0.0071 | -0.025 ± 0.0028 | 0.003 ± 0.013 | -0.012 ± 0.0042 | -0.0105 ± 0.025 | -0.0285 ± 0.039 | 0.0945 ± 0.0092 | 0.006 ± 0.0071 | 0.026 | 0.0085 ± 0.0092 |
| KF3CT:CXCL8/IL-8 | 0.001 ± 0.025 | 0.034 ± 0.014 | -0.009 ± 0.0028 | 0.011 ± 0.011 | 0.019 ± 0.011 | -0.0095 ± 0.00071 | -0.0325 ± 0.005 | -0.015 ± 0.016 | -0.0465 ± 0.036 | -0.03 ± 0.014 | -0.0165 ± 0.03 | -0.021 ± 0.027 | -0.0135 ± 0.03 | 0.0015 ± 0.0035 | 0.0005 ± 0.019 | 0.0445 ± 0.012 | 0.012 ± 0.018 | 0.0175 ± 0.022 | 0.022 ± 0.0042 |
| KF3CT:CXCL9/MIG | -0.013 ± 0.013 | -0.0105 ± 0.025 | 0.019 ± 0.018 | 0.006 ± 0.02 | 0.0145 ± 0.0078 | -0.005 ± 0.0014 | -0.008 ± 0.013 | -0.003 ± 0.0071 | 0.006 ± 0.0042 | 0.011 ± 0.0085 | 0.007 ± 0.0099 | -0.0095 ± 0.00071 | -0.002 ± 0.025 | -0.0085 ± 0.012 | -0.006 ± 0.0042 | -0.028 ± 0.0028 | 0 | 0.01 ± 0.0057 | 0.0115 ± 0.0021 |
| KF3CT:CXCL10/IP-10 | -0.0235 ± 0.0021 | -0.023 ± 0.0057 | -0.001 ± 0.0014 | -0.001 ± 0.013 | 0.0025 ± 0.0064 | -0.009 ± 0.0014 | -0.0175 ± 0.0078 | -0.013 ± 0.0028 | -0.011 ± 0.0071 | 0.009 ± 0.0042 | -0.001 ± 0.017 | -0.011 ± 0.027 | -0.012 ± 0.021 | -0.0175 ± 0.016 | -0.036 ± 0.0057 | -0.211 ± 0.011 | 0.0285 ± 0.00071 | 0.0305 ± 0.0035 | 0.0295 ± 0.0021 |
| KF3CT:IL-1alpha | 0.054 ± 0.02 | 0.071 ± 0.014 | -0.0165 ± 0.011 | -0.0265 ± 0.005 | 0.008 ± 0.045 | -0.0025 ± 0.0078 | -0.04 ± 0.0042 | -0.044 ± 0.0057 | 0.012 ± 0.0085 | 0.011 | 0.0095 ± 0.0064 | -0.009 ± 0.011 | -0.0255 ± 0.015 | 0.0095 ± 0.037 | -0.0255 ± 0.00071 | 0.0105 ± 0.04 | -0.0185 ± 0.0078 | 0.0085 ± 0.018 | 0.0015 ± 0.0021 |
| KF3CT:MMP-9 | -0.0375 ± 0.0021 | -0.054 ± 0.0071 | -0.0095 ± 0.013 | 0.002 ± 0.025 | 0.0125 ± 0.023 | -0.0195 ± 0.035 | -0.0185 ± 0.033 | -0.005 ± 0.021 | -0.039 ± 0.027 | -0.0195 ± 0.0021 | -0.0245 ± 0.011 | -0.0085 ± 0.028 | -0.012 ± 0.0099 | -0.0205 ± 0.013 | -0.0735 ± 0.011 | -0.298 ± 0.0071 | -0.014 ± 0.0042 | -0.0225 ± 0.00071 | -0.0155 ± 0.025 |
